In PMC11771932, “Integrated in silico and in vitro exploration of the anti-VEGFR-2 activities of a semisynthetic xanthine alkaloid inhibiting breast cancer” (PLOS ONE, 2025):
Read-outs that look alike come from different tables or passages of the source.

Legend:
Rat [1] = conditions: structural similar compounds of the TOPKAT report; ref NCI/NTP TR-358, NCI/NTP TR-138, NCI/NTP TR-336; cited from earlier work
Mouse = test system: Mouse; design: method as in earlier work; conditions: structural similar compounds of the TOPKAT report; ref CPDB; cited from earlier work
Rat [2] = conditions: cited from earlier work
Rats = conditions: structural similar compounds of the TOPKAT report; ref NIIRDN 6;688;82, 85ARAE 4;118;76/77, DRFUD4 2;393;77, YRTMA6 9;11;78, FMCHA2 -;C149;89, ARZNAD 30;2023;80; cited from earlier work
VEGFR-2 = test system: VEGFR-2; design: method as in PMID 35493991; conditions: read-out: VEGFR-2 inhibition IC50; cited from earlier work
human VEGFR-2 = biological target: T1, human VEGFR-2 (Homo sapiens, UniProt P35968); assay: In vitro VEGFR-2 inhibition (Human VEGFR-2 ELISA kit); format: biochemical
T1 construct: MCF- 7 cell line; endogenous in cells; host or cells: MCF-7

MCF7 cell line = assay: In vitro cytotoxicity, MCF7; format: cell-based
Description: (§1) The potential of T-1-NBAB as an anticancer agent has been highlighted through both in silico and in vitro studies, primarily due to its anti-VEGFR-2 properties. To further investigate T-1-NBAB’s cytotoxicity, it was tested against breast carcinoma epithelial cancer cell lines MCF7 and T47D.
(§2) The cytotoxic potential of T-1-NBAB against MCF7 and T47D cell lines was accomplished by MTT procedure.
(§3) Mammalian cell lines culture
(§4) MCF7 and T47D cell lines were cultured on DMEM media. The cultured media were supplemented with 200 mM L-glutamine, 10.0% fetal bovine serum (Lonza), and 1.0% penicillin/streptomycin. Cells were seeded into 25.0 cm tissue culture flasks and incubated at 37◦C in a 5.0% CO2 incubator for 24 h or till confluency.
(§5) The safety profiles of the tested compounds were checked on one non-cancerous cell line (vero) […]
(§6) A portion of 100.0 µl of 6×10^4 cell/ml cells was seeded into each well of a 96-well plate and then the plates were incubated at 37 °C in a humidified 5.0% CO2 incubator for 24 h. […]
(§7) The inoculated plates were incubated at the same growth conditions for another 24 h. At the end of incubation, cellular viability was assessed using MTS assay kit (Promega) according to […]
(§8) Anticancer activities of the tested compounds against MCF7 and T47D cell lines were quantified using MTS assay kit (Promega) as described by the Manufacturer. […]

T47D cell line = assay: In vitro cytotoxicity, T47D; format: cell-based
Description: as §1, §2, §3, §4, §5, §6, §7, §8

[3] = test system: Vero (normal epithelial) cell lines; assay: Safety assay on non-cancerous Vero cells; format: cell-based; conditions: Chlorocebus sabaeus, read-out: IC50 against Vero
Description: as §1
The cytotoxic potential of T-1-NBAB against non-cancerous (Vero) cell lines was accomplished by MTT procedure.
as §3, §4, §5
A portion of 100.0 µl of 6×10^4 cell/ml cells was seeded into each well of a 96-well plate and then the plates were incubated at 37 °C in a humidified 5.0% CO2 incubator for 24 h. At the end of incubation period, the exhausted medium was replaced with 100.0 µl of different concentrations of the designated treatment (prepared in RPMI medium starting from 1.0 mM).
as §7

MCF7 cells [4] = assay: Apoptosis assay, flow cytometry, Annexin V and PI double staining; format: cell-based
Description: The T-1-NBAB’s effect as an apoptotic agent was assessed via flow cytometry analysis, on MCF7 cells using Annexin V and PI double staining.
T-1-NBAB’s apoptotic potentials and effect on MCF7 cell cycle were accomplished by flow cytometry analysis technique.
In-vitro anticancer activity
Anticancer activities of the tested compounds against MCF7 and T47D cell lines were quantified using MTS assay kit (Promega) as described by the Manufacturer.
The selectivity index values of the tested compounds on cancer cells were calculated as described by Koch et al., with slight modifications; SI=IC50nc/IC50cc, where IC50nc: the IC50 value of the tested compound on normal cells and IC50cc: IC50 of the tested compound on cancer cell […]
In vitro EGFR kinase assay
The synthesized compound was estimated for their in vitro inhibition on human VEGFR-2 in MCF- 7 cell line; using ELISA kit. Firstly, a plate was used for the assay had been coated by an […]
2 inhibitor. Both standard and sample were added to the wells and incubated overnight at 4 ◦C, then washed. The biotinylated antibody was supplemented and further incubated for 1 h at room temperature. The unreacted, liberated antibody was then washed; followed by addition of HRP-conjugated streptavidin and incubated for 45 min at room temperature. Wells were washed and a TMB substrate solution was added and kept at room temperature for 30 min. Finally, the stop solution was added, and the intensity of the color produced was measured at 450 nm.
Concentration- inhibition response curve was established by GraphPad Prism 5.0. The IC 50 value was calculated as the concentration at which 50% of the cells could survive in comparison to […]
Flow cytometry analysis for apoptosis
Flow cytometry cell apoptosis analysis was used to investigate the apoptotic effect of the synthesized compound. […] The stained cells were measured using Epics XL-MCL™ Flow Cytometer and analyzed […]

MCF7 cells [5] = assay: Wound healing and migration assay; format: cell-based
Description: The wound healing assay, a simple and cost-effective procedure, can assess the mobility and repair capacity of cancerous cells. In this method, a scratch is created on a layer of cancer cells, and the initial width is recorded. The healing of the scratch was observed periodically for both untreated and treated cells. Throughout the study, images of the scratched areas from both groups were compared at the 0-hour and 48-hour time points.
Wound healing assay was accomplished for T-1-NBAB utilizing MCF7 cell lines. […]
Wound healing and migration assay
The wound healing assay allows the researcher to study cell migration and cell interactions. In […]
some cases also single cell migration can be analyzed and this assay can be imaged […]
1. Cells were seeded in 6 multi-well plates and cultured until confluent. It is important that all the cultures are confluent at the start of the experiment.
2. (yellow) pipette tip was used to make a straight scratch, simulating a wound. Often we make a scratch keeping the pipette tip under an angle of around 30 degrees to keep the scratch width limited. This allows imaging of both wound edges using the 10x objective.
The following equations are applied to calculate the healing and migration ratio Rat of migration (RM) = (wi – wf ) / t
Wi =average of intial wound width um
Wf= average of final wound width um
T = time span of the assay in hours
Percentage of wound clouser % ={ (At=0 – At=∆t ) / At=0 } 100 […]
At=∆t = wound area after n hours
Area difference % = (Ai – Af )

[6] = structural similar compounds of the TOPKAT report, ref CPDB

T1 sequence (P35968 20-1356): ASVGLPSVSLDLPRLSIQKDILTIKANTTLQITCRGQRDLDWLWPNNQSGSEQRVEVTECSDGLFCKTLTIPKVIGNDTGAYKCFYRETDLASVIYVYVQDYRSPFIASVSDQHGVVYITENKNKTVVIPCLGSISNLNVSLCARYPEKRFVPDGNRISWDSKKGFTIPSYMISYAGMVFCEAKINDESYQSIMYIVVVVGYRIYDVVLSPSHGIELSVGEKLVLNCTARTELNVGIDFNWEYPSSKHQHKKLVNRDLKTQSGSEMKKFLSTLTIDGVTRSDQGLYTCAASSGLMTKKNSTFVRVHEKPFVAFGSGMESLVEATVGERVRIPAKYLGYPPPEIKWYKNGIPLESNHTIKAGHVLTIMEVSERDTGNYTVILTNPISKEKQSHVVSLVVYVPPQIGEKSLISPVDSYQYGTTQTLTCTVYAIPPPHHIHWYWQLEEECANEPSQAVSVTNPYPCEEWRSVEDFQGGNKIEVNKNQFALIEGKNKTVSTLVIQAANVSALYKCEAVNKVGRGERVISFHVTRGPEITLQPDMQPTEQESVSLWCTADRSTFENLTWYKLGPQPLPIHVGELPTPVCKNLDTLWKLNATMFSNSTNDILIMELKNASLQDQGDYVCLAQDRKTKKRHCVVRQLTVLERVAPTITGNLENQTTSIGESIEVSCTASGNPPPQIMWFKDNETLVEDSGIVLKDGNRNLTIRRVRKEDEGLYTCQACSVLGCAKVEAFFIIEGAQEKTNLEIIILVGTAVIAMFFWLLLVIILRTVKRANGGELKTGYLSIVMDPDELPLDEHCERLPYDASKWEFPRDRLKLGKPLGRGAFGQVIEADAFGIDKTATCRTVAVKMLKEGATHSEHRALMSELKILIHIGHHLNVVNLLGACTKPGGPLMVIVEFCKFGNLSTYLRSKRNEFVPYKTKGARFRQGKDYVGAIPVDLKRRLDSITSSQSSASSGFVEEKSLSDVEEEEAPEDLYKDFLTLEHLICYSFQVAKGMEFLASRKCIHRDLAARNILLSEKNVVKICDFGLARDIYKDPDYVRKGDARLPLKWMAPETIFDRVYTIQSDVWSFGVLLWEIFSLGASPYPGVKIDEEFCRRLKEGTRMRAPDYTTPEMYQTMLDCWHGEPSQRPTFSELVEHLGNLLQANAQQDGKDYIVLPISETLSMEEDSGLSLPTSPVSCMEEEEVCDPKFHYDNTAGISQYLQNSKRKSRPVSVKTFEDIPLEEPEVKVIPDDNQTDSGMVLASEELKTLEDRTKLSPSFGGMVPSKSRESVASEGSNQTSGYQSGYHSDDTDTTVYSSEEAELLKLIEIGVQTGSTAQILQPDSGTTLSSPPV

In the case of `Cc1noc(NS(=O)(=O)c2ccc(N)cc2)c1C` [SULFISOOXAZOLE], the “Rat maximum tolerated dose gavage, Actual Endpoint (-log C)” value (Rat [1]) is listed as 2.825 -log C.
For `C[C@@H]1Cc2c(Cl)cc(C(=O)N[C@@H](Cc3ccccc3)C(=O)O)c(O)c2C(=O)O1` [Ochratoxin A], the “Carcinogenic potency TD50 mouse, Actual Endpoint (-log C)” value (Mouse) is given as 4.799 -log C and the “Carcinogenic potency TD50 rat, Actual Endpoint (-log C)” value (Rat [2]; [6]) is given as 6.473 -log C.
For `CC(C)(Oc1ccc(CCNC(=O)c2ccc(Cl)cc2)cc1)C(=O)O` [BEZAFIBRATE], the “Rat oral LD50, Actual Endpoint (-log C)” value (Rats) is given as 1.946 -log C.
For `Cc1cccc(Nc2cc(Cl)nc(SCC(=O)NCCO)n2)c1C` [4-Chloro-6-(2,3-xylidino)-2-pyrimidinylthio(N-b-hydroxyethyl) acetamide], the “Carcinogenic potency TD50 mouse, Actual Endpoint (-log C)” value (Mouse) is given as 3.915 -log C.
In the case of `COC(=O)Nc1nc2cc(C(=O)c3ccc(F)cc3)ccc2[nH]1` [FLUBENDAZOLE], the “Rat oral LD50, Actual Endpoint (-log C)” value (Rats) is listed as 2.088 -log C.
For `Cc1nc2ccccc2n(CC(=O)Nc2ccc(C(=O)Nc3cccc(Cl)c3)cc2)c1=O` [compound V], the IC50 (VEGFR-2) is given as 0.0027 µM.
For `COC(=O)Nc1nc2ccccc2n1C(=O)NCCCCCC#N` [CARBAMIC ACID; [1-[(5-CYANOPENTYL)CARBAMOYL]BENZIMIDAZOL-2-YL]-; METHYL ESTER], the “Rat oral LD50, Actual Endpoint (-log C)” value (Rats) is given as 2.12 -log C.
For `CC1(C)S[C@@H]2[C@H](NC(=O)COc3ccccc3)C(=O)N2[C@H]1C(=O)O` [[…]], the “Rat maximum tolerated dose gavage, Actual Endpoint (-log C)” value (Rat [1]) is given as 2.545 -log C.
In the case of `CC(C)n1c(/C=C/C(O)CC(O)CC(=O)O)c(-c2ccc(F)cc2)c2ccccc21` (stereo not drawn) [Fluvastatin, reference compound], the “Carcinogenic potency TD50 rat, Actual Endpoint (-log C)” value (Rat [2]) is listed as 3.517 -log C.
In the case of `NS(=O)(=O)c1cc(C(=O)O)cc(N2CCCC2)c1Oc1ccccc1` [PIRETANIDE], the “Rat oral LD50, Actual Endpoint (-log C)” value (Rats) is listed as 1.811 -log C.
In the case of `C[C@@H]1Cc2c(Cl)cc(C(=O)N[C@@H](Cc3ccccc3)C(=O)O)c(O)c2C(=O)O1` [OCHRATOXIN], the “Rat maximum tolerated dose gavage, Actual Endpoint (-log C)” value (Rat [1]) is given as 6.284 -log C.
For `Cn1cnc2c1c(=O)n(CC(=O)Nc1ccc(C(=O)NCc3ccccc3)cc1)c(=O)n2C` [T-1-NBAB], the IC50 (human VEGFR-2) was 0.115 µM, the IC50 (MCF7 cell line; Homo sapiens, breast cancer cell line MCF7, read-out: IC50 against MCF7) was 16.9 µM and the “Selectivity index (SI) against MCF7” value (MCF7 cell line; IC50 normal cells (Vero) / IC50 MCF7) was 4.1. The IC50 (T47D cell line; Homo sapiens, breast cancer cell line T47D, read-out: IC50 against T47D) was 61.2 µM, the “Selectivity index (SI) against T47D” value (T47D cell line; IC50 normal cells (Vero) / IC50 T47D) was 1.1 and the IC50 [3] was 68.4 µM. For the same molecule, the “Apoptosis Late” value (MCF7 cells [4]; control 0.12) was 2.88%, the “Apoptosis Early” value (MCF7 cells [4]; control 0.72) was 3.51% and the Necrosis (MCF7 cells [4]; control 2.21) was 9.37%. The area difference (MCF7 cells [5]; 0 h vs 48 h, control 659.8333) was 112 µm², the “RM (rate of migration)” value (MCF7 cells [5]; 48 h, control 13.74681) was 2.322 µm/h and the Wound closure % (MCF7 cells [5]; 48 h, control 65.96135) was 12.16%. For the same molecule, the “Scratch area at 0h” value (MCF7 cells [5]; mean of five values) was 917, the “Scratch area at 48 h” value (MCF7 cells [5]; mean of five values) was 805.5 and the “Scratch width at 0h” value (MCF7 cells [5]; mean of five values) was 916.0155. The “Scratch width at 48 h” value (MCF7 cells [5]; mean of five values) was 804.5532 and the “Reduction of scratch width after 48 hours” value (MCF7 cells [5]; untreated control closed 65.9%) was 12%.
In the case of `O=[N+]([O-])c1ccc(-c2nc(N(CCO)CCO)c3ccccc3n2)s1` [4-Bis(2-hydroxyethyl)amino-2-(5-nitro-2-thienyl)quinazoline], the “Carcinogenic potency TD50 rat, Actual Endpoint (-log C)” value (Rat [2]; [6]) is given as 5.06 -log C.
